Test results taken from ChEMBL document CHEMBL3044810, “Synthesis and herbicidal activity of alkyl 1-(3-trifluoromethylphenoxyacetoxy)-1-substituted methylphosphonates” (J Pestic Sci, 2007).

Key:
Medicago sativa [1] = assay: Pre-emergence herbicidal activity against Medicago sativa (alfalfa) assessed as growth inhibition at 1.5 ai kg/ha under green house conditions; assay type: functional
Medicago sativa [2] = assay: Post-emergence herbicidal activity against Medicago sativa (alfalfa) assessed as growth inhibition at 1.5 ai kg/ha under green house conditions; assay type: functional
Digitaria sanguinalis [3] = assay: Post-emergence herbicidal activity against Digitaria sanguinalis (hairy crabgrass) assessed as growth inhibition at 1.5 ai kg/ha under green house conditions; assay type: functional
Brassica napus [4] = assay: Pre-emergence herbicidal activity against Brassica napus (oilseed rape) assessed as growth inhibition at 1.5 ai kg/ha under green house conditions; assay type: functional
Echinochloa crus-galli [5] = assay: Post-emergence herbicidal activity against Echinochloa crus-galli (barnyard grass) assessed as growth inhibition at 1.5 ai kg/ha under green house conditions; assay type: functional
Digitaria sanguinalis [6] = assay: Pre-emergence herbicidal activity against Digitaria sanguinalis (hairy crabgrass) assessed as growth inhibition at 1.5 ai kg/ha under green house conditions; assay type: functional
Brassica napus [7] = assay: Post-emergence herbicidal activity against Brassica napus (oilseed rape) assessed as growth inhibition at 1.5 ai kg/ha under green house conditions; assay type: functional
Amaranthus retroflexus [8] = assay: Pre-emergence herbicidal activity against Amaranthus retroflexus assessed as growth inhibition at 1.5 ai kg/ha under green house conditions; assay type: functional
Echinochloa crus-galli [9] = assay: Pre-emergence herbicidal activity against Echinochloa crus-galli (barnyard grass) assessed as growth inhibition at 1.5 ai kg/ha under green house conditions; assay type: functional
Cucumis sativus = assay: Pre-emergence growth inhibition of Cucumis sativus (cucumber) under green house conditions; assay type: functional, organism-based
Amaranthus retroflexus [10] = assay: Post-emergence herbicidal activity against Amaranthus retroflexus assessed as growth inhibition at 1.5 ai kg/ha under green house conditions; assay type: functional

| SMILES | growth inhibition (GI) (Medicago sativa [1]) | growth inhibition (GI) (Medicago sativa [2]) | growth inhibition (GI) (Digitaria sanguinalis [3]) | growth inhibition (GI) (Brassica napus [4]) | growth inhibition (GI) (Echinochloa crus-galli [5]) | growth inhibition (GI) (Digitaria sanguinalis [6]) | growth inhibition (GI) (Brassica napus [7]) | growth inhibition (GI) (Amaranthus retroflexus [8]) | growth inhibition (GI) (Echinochloa crus-galli [9]) | IC50 (Cucumis sativus) | growth inhibition (GI) (Amaranthus retroflexus [10]) |
| --- | --- | --- | --- | --- | --- | --- | --- | --- | --- | --- | --- |
| COP(=O)(OC)C(OC(=O)COc1cccc(C(F)(F)F)c1)c1ccc(C)cc1 (stereo not drawn) | 100% | 91.2% | 0% | 50.4% | 23.6% | 95.7% | 14.2% | 100% | 80.4% | 4.04 µg/g | 96.2% |
| COP(=O)(OC)C(OC(=O)COc1cccc(C(F)(F)F)c1)c1ccc(Cl)cc1 (stereo not drawn) | 89.8% | 100% | 12% | 38.6% | 0% | 91.5% | 57.4% | 100% | 84.2% | 3.16 µg/g | 88.5% |
| COP(=O)(OC)C(C)OC(=O)COc1cccc(F)c1 (stereo not drawn) | 0% | 0% | 22.7% | 0% | 17.8% | 0% | 0% | 0% | 4.4% | 111.13 µg/g | 0% |
